Results published in ChEMBL document CHEMBL5352486, “Design, synthesis, in vitro - In vivo biological evaluation of novel thiazolopyrimidine compounds as antileishmanial agent with PTR1 inhibition” (Eur J Med Chem, 2023).
Converted amounts (≈) assume the structure as drawn.

Experiments:
[1] = tested on: Leishmania tropica; assay: Antileishmanial activity against Leishmania tropica MHOM/A7/1974/SAF-K27 incubated for 48 hrs by Neubauer hemocytometer analysis; assay type: functional, organism-based; details: MHOM/A7/1974/SAF-K27, 48 h
[2] = tested on: Leishmania infantum; assay: Antileishmanial activity against Leishmania infantum MHOM/TN/1980/IPT1 incubated for 48 hrs by XTT method; assay type: functional, organism-based; details: MHOM/TN/1980/IPT1, 48 h
[3] = tested on: Leishmania infantum; assay: Antileishmanial activity against Leishmania infantum MHOM/TN/1980/IPT1 incubated for 48 hrs by Neubauer hemocytometer analysis; assay type: functional, organism-based; details: MHOM/TN/1980/IPT1, 48 h
[4] = tested on: Leishmania tropica; assay: Antileishmanial activity against Leishmania tropica MHOM/A7/1974/SAF-K27 incubated for 48 hrs by XTT method; assay type: functional, organism-based; details: MHOM/A7/1974/SAF-K27, 48 h
[5] = tested on: L929; assay: (§1) Cytotoxicity against mouse L929 cells by alamar blue method; assay type: toxicity, cell-based; details: l929
[6] = as §1; assay type: toxicity, cell-based; details: mouse, L929 cells
[7] = target: T1, Pteridine reductase 1 (Leishmania major, UniProt Q01782); assay: Inhibition of recombinant Leishmania major PTR1 expressed in Escherichia coli BL21 using folic acid as substrate in presence of NADPH
T1 sequence (Q01782 whole entry): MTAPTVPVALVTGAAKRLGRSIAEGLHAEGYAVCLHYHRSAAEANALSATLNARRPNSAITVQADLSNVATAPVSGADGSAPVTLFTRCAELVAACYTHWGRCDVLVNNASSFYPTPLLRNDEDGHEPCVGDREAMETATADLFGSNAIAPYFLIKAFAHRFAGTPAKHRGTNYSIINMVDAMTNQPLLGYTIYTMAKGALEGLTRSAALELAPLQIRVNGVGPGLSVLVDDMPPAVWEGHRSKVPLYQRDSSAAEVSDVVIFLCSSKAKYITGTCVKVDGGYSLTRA

[8] = tested on: DHFR (human) versus PTR1 (Leishmania major); assay: Selectivity index, ratio of IC50 for human DHFR to IC50 for Leishmania major PTR1; assay type: toxicity; details: human DHFR enzyme and Leishmania major PTR1 enzyme, read-out: Ratio IC50
[9] = (§2) Cytotoxicity against mouse RAW264.7 cells by alamar blue method; assay type: toxicity, cell-based; details: mouse, RAW264.7 cells
[10] = tested on: RAW264.7; assay: as §2; assay type: toxicity, cell-based; details: raw264.7

SMILES: CCOC(=O)N1CCN(c2ncc3nc(NC(=O)c4ccc(Cl)cc4Cl)sc3n2)CC1
- IC50 [1]: > 300 µg/mL
- IC50 [2]: > 300 µg/mL
- IC50 [3]: > 300 µg/mL
- IC50 [4]: > 300 µg/mL

SMILES: O=C(Nc1nc2cnc(N3CCOCC3)nc2s1)c1ccc(Cl)cc1Cl
- IC50 [1]: 90.3 µg/mL (≈ 220 µM)
- IC50 [2]: 90.9 µg/mL (≈ 222 µM)
- IC50 [3]: 91.1 µg/mL (≈ 222 µM)
- IC50 [4]: 90.6 µg/mL (≈ 221 µM)

SMILES: O=C(Nc1nc2cnc(N3CCCC3)nc2s1)c1ccc(Cl)cc1Cl
- IC50 [1]: 51.2 µg/mL (≈ 130 µM)
- IC50 [2]: 52.6 µg/mL (≈ 133 µM)
- IC50 [3]: 52.4 µg/mL (≈ 133 µM)
- IC50 [4]: 52 µg/mL (≈ 132 µM)

SMILES: CC(=O)N1CCN(c2ncc3nc(NC(=O)c4ccc(Cl)c(Cl)c4)sc3n2)CC1
- IC50 [1]: 147 µg/mL (≈ 326 µM)
- IC50 [2]: 127 µg/mL (≈ 282 µM)
- IC50 [3]: 126 µg/mL (≈ 279 µM)
- IC50 [4]: 149 µg/mL (≈ 331 µM)

SMILES: O=C(Nc1nc2cnc(N3CCCCC3)nc2s1)c1ccc(Cl)cc1
- IC50 [1]: 116 µg/mL (≈ 310 µM)
- IC50 [2]: 121 µg/mL (≈ 324 µM)
- IC50 [3]: 119 µg/mL (≈ 317 µM)
- IC50 [4]: 122 µg/mL (≈ 327 µM)

SMILES: CCOC(=O)N1CCN(c2ncc3nc(NC(=O)c4ccc(Cl)cc4)sc3n2)CC1
- IC50 [1]: 53.9 µg/mL (≈ 121 µM)
- IC50 [2]: 53.5 µg/mL (≈ 120 µM)
- IC50 [3]: 52.4 µg/mL (≈ 117 µM)
- IC50 [4]: 54.1 µg/mL (≈ 121 µM)

SMILES: O=C(Nc1nc2cnc(N3CCOCC3)nc2s1)c1ccc(Cl)cc1
- IC50 [1]: > 300 µg/mL
- IC50 [2]: > 300 µg/mL
- IC50 [3]: > 300 µg/mL
- IC50 [4]: > 300 µg/mL

SMILES: CC(=O)N1CCN(c2ncc3nc(NC(=O)c4ccc(Cl)cc4Cl)sc3n2)CC1
- IC50 [1]: 75 µg/mL (≈ 166 µM)
- IC50 [2]: 78.6 µg/mL (≈ 174 µM)
- IC50 [3]: 77.7 µg/mL (≈ 172 µM)
- IC50 [4]: 75.8 µg/mL (≈ 168 µM)

SMILES: CC(=O)N1CCN(c2ncc3nc(NC(=O)c4ccc(Cl)cc4)sc3n2)CC1
- IC50 [1]: > 300 µg/mL
- IC50 [2]: > 300 µg/mL
- IC50 [3]: > 300 µg/mL
- IC50 [4]: > 300 µg/mL

SMILES: CCN(CC)c1ncc2nc(NC(=O)c3ccc(Cl)cc3)sc2n1
- IC50 [1]: 186 µg/mL (≈ 515 µM)
- IC50 [2]: 189 µg/mL (≈ 523 µM)
- IC50 [3]: 191 µg/mL (≈ 528 µM)
- IC50 [4]: 188 µg/mL (≈ 520 µM)

SMILES: CN(C)c1ncc2nc(NC(=O)c3ccc(Cl)cc3)sc2n1
- IC50 [1]: > 300 µg/mL
- IC50 [2]: > 300 µg/mL
- IC50 [3]: > 300 µg/mL
- IC50 [4]: > 300 µg/mL

SMILES: CCN(CC)c1ncc2nc(NC(=O)c3ccc(Cl)c([N+](=O)[O-])c3)sc2n1
- log10 IC50 (µg/mL) [5]: 1.28
- IC50 [6]: 19.1 µg/mL (≈ 46.8 µM)
- IC50 [7]: 254 µM
- IC50 [1]: 15.8 µg/mL (≈ 38.7 µM)
- IC50 [2]: 15.3 µg/mL (≈ 37.6 µM)
- IC50 [3]: 15.1 µg/mL (≈ 37.2 µM)
- IC50 [4]: 15.6 µg/mL (≈ 38.2 µM)
- selectivity ratio [8]: 12.6
- IC50 [9]: 4.47 µg/mL (≈ 11 µM)
- log10 IC50 (µg/mL) [10]: 0.65

SMILES: CC(=O)N1CCN(c2ncc3nc(NC(=O)c4ccc(Cl)c([N+](=O)[O-])c4)sc3n2)CC1
- IC50 [1]: 34.4 µg/mL (≈ 74.4 µM)
- IC50 [2]: 36.1 µg/mL (≈ 78.1 µM)
- IC50 [3]: 35.5 µg/mL (≈ 76.8 µM)
- IC50 [4]: 35.3 µg/mL (≈ 76.3 µM)

SMILES: O=C(Nc1nc2cnc(N3CCCCC3)nc2s1)c1ccc(Cl)c([N+](=O)[O-])c1
- IC50 [1]: 56.8 µg/mL (≈ 136 µM)
- IC50 [2]: 63.5 µg/mL (≈ 152 µM)
- IC50 [3]: 64 µg/mL (≈ 153 µM)
- IC50 [4]: 56.7 µg/mL (≈ 135 µM)

SMILES: O=C(Nc1nc2cnc(N3CCOCC3)nc2s1)c1ccc(Cl)c(Cl)c1
- IC50 [1]: 40.3 µg/mL (≈ 98.2 µM)
- IC50 [2]: 44.6 µg/mL (≈ 109 µM)
- IC50 [3]: 44.1 µg/mL (≈ 108 µM)
- IC50 [4]: 41.4 µg/mL (≈ 101 µM)

SMILES: O=C(Nc1nc2cnc(N3CCCC3)nc2s1)c1ccc(Cl)c(Cl)c1
- IC50 [1]: > 300 µg/mL
- IC50 [2]: > 300 µg/mL
- IC50 [3]: > 300 µg/mL
- IC50 [4]: > 300 µg/mL

SMILES: O=C(Nc1nc2cnc(N3CCCC3)nc2s1)c1ccc(Cl)cc1
- IC50 [1]: 137 µg/mL (≈ 380 µM)
- IC50 [2]: 117 µg/mL (≈ 326 µM)
- IC50 [3]: 114 µg/mL (≈ 315 µM)
- IC50 [4]: 141 µg/mL (≈ 392 µM)

SMILES: O=C(Nc1nc2cnc(N3CCCCC3)nc2s1)c1ccc(Cl)c(Cl)c1
- IC50 [1]: 25.1 µg/mL (≈ 61.6 µM)
- IC50 [2]: 25.8 µg/mL (≈ 63.2 µM)
- IC50 [3]: 25.7 µg/mL (≈ 63 µM)
- IC50 [4]: 25.5 µg/mL (≈ 62.4 µM)

SMILES: CN(C)c1ncc2nc(NC(=O)c3ccc(Cl)cc3Cl)sc2n1
- IC50 [1]: 86.6 µg/mL (≈ 235 µM)
- IC50 [2]: 81.1 µg/mL (≈ 220 µM)
- IC50 [3]: 84.1 µg/mL (≈ 228 µM)
- IC50 [4]: 86.2 µg/mL (≈ 234 µM)

SMILES: O=C(Nc1nc2cnc(Cl)nc2s1)c1ccc(Cl)c([N+](=O)[O-])c1
- IC50 [1]: 30.6 µg/mL (≈ 82.7 µM)
- IC50 [2]: 30.6 µg/mL (≈ 82.6 µM)
- IC50 [3]: 30.5 µg/mL (≈ 82.4 µM)
- IC50 [4]: 30.7 µg/mL (≈ 82.9 µM)

SMILES: CN(C)c1ncc2nc(NC(=O)c3ccc(Cl)c(Cl)c3)sc2n1
- IC50 [1]: 116 µg/mL (≈ 315 µM)
- IC50 [2]: 114 µg/mL (≈ 310 µM)
- IC50 [3]: 112 µg/mL (≈ 304 µM)
- IC50 [4]: 119 µg/mL (≈ 322 µM)

SMILES: CN1CCN(c2ncc3nc(NC(=O)c4ccc(Cl)c([N+](=O)[O-])c4)sc3n2)CC1
- IC50 [1]: 51.5 µg/mL (≈ 119 µM)
- IC50 [2]: 60.4 µg/mL (≈ 139 µM)
- IC50 [3]: 58.8 µg/mL (≈ 135 µM)
- IC50 [4]: 53.8 µg/mL (≈ 124 µM)

SMILES: O=C(Nc1nc2cnc(Cl)nc2s1)c1ccc(Cl)c(Cl)c1
- IC50 [1]: 14.8 µg/mL (≈ 41.1 µM)
- IC50 [2]: 14.4 µg/mL (≈ 40 µM)
- IC50 [3]: 14.1 µg/mL (≈ 39.3 µM)
- IC50 [4]: 15.1 µg/mL (≈ 41.9 µM)

SMILES: O=C(Nc1nc2cnc(N3CCCCC3)nc2s1)c1ccc(Cl)cc1Cl
- IC50 [1]: 16.3 µg/mL (≈ 39.9 µM)
- IC50 [2]: 16.8 µg/mL (≈ 41.1 µM)
- IC50 [3]: 16.8 µg/mL (≈ 41.1 µM)
- IC50 [4]: 16.3 µg/mL (≈ 39.8 µM)

SMILES: CCN(CC)c1ncc2nc(NC(=O)c3ccc(Cl)cc3Cl)sc2n1
- IC50 [1]: 120 µg/mL (≈ 303 µM)
- IC50 [2]: 124 µg/mL (≈ 312 µM)
- IC50 [3]: 123 µg/mL (≈ 310 µM)
- IC50 [4]: 125 µg/mL (≈ 315 µM)
